pIC50: −log10 of the molar value.

The test relates to HepG2. Put plainly: Cytotoxicity against human HepG2 cells by MTT assay. In kind it is functional, cell-based.
On to `CC1=C(C)[C@H]2[C@H](Cc3c[nH]c4ccccc34)NC(=O)[C@]23C(=O)/C=C/C(=O)[C@H](O)/C(C)=C/[C@@H](C)C/C=C/[C@H]3[C@@H]1O` [CHEATOGLOBOSIN B], for which the pIC50 was 5.28. As to `COc1cc([C@@H]2c3cc4c(cc3[C@@H](O[C@@H]3O[C@@H]5CO[C@@H](C)O[C@H]5[C@H](O)[C@H]3O)[C@H]3COC(=O)[C@H]23)OCO4)cc(OC)c1O` [ETOPOSIDE], the pIC50 is 4.80. For `C/C1=C\[C@@H](C)C/C=C/[C@H]2C(=O)[C@@H](C)[C@@H](C)[C@H]3[C@H](Cc4c[nH]c5ccccc45)NC(=O)[C@]32C(=O)/C=C/C(=O)[C@@H]1O` the value was 5.54; for `C/C1=C\[C@@H](C)C/C=C/[C@H]2[C@@H]3O[C@]3(C)[C@@H](C)[C@H]3[C@H](Cc4c[nH]c5ccccc45)NC(=O)[C@]32C(=O)/C=C/C(=O)[C@@H]1O` [CHAETOGLOBOSIN A], 5.20.

`CC1=C(C)[C@H]2[C@H](Cc3c[nH]c4ccccc34)NC(=O)[C@]23C(=O)CC[C@H](O)C(=O)/C(C)=C/[C@@H](C)C/C=C/[C@H]3[C@@H]1O` [CHAETOGLOBOSIN E] had a pIC50 of 5.44. For the molecule `CC1=C(O)C(=O)[C@H]2CC(=O)[C@@]34C(=O)N[C@@H](Cc5c[nH]c6ccccc56)[C@@H]3C(C)=C(C)[C@@H](O)[C@@H]4/C=C/C[C@H](C)[C@H]12`, the pIC50 was 4.89.

As for `CC1=C(C)[C@H]2[C@H](Cc3c[nH]c4ccccc34)NC(=O)[C@]23C(=O)CCC(=O)[C@H](O)/C(C)=C/[C@@H](C)C/C=C/[C@H]3[C@@H]1O`, the pIC50 was 5.07.

For the origin of these results see ChEMBL document CHEMBL4000169, “Overexpression of the Global Regulator LaeA in Chaetomium globosum Leads to the Biosynthesis of Chaetoglobosin Z” (J Nat Prod, 2016).
